Results on one compound are retold here after US11166940B2, “Treatment of cardiac disorders by blocking SK4 potassium channel” (Ramot at Tel-Aviv University Ltd., priority 2016, dated 2021).

For test [1], the system named is SAN cells. The experiment in a line: Spontaneous APs / pacing rate of isolated SAN cells from WT mice (patch clamp). The conditions noted are these: 50 nM isoproterenol. Type of test: cell-based, mouse. The procedure:
(§1) WT and CASQ2 D307H KI mice were anesthetized with isofluorane and sacrificed by cervical dislocation. The heart was rapidly removed and transferred into Tyrode solution containing heparin. […] The area was cleaned, cut into small strips and washed into a Low Calcium Solution, containing (in mM): 140 NaCl, 5.4 KCl, 0.5 MgCl2, 1.2 KH2PO4, 5 HEPES-NaOH, 50 taurine, 5.5 glucose (pH 6.9). The osmolarity was adjusted if needed to 315 mOsm.
The same solution, supplemented with 1 mg/ml albumin, 200 μM CaCl2, collagenase Type I (Worthington) or liberase TH (Roche), protease (Sigma) and elastase (Sigma) was used for enzymatic digestion as previously described [See, Mesirca, P., et al. Nat Commun 5, 4664 (2014)]. In this step, the tissue was gently resuspended with a polished Pasteur pipette in this solution for 9-13 minutes at 37° C. SAN samples were then washed three times in a modified “Kraftbrühe” solution, containing (in mM): 70 glutamic acid, 80 KOH, 20 KCl, 10 γ-Hydroxybutyric acid sodium salt, 10 KH2PO4, 10 HEPES-KOH, 10 taurine, 1 mg/ml albumin, 0.1 EGTA-KOH (pH 7.2). The same solution was used to re-suspend the single cells with a pipet by vigorous up and down, between 3 to 5 minutes at 37° C. Cells were then gradually exposed to increasing concentrations of calcium, following a “Ca^2+ readaptation” protocol [Mesirca et al., 2014, supra]. Experiments were performed the same day at 33° C.
(§2) In all experiments, the coverslips were perfused at 33° C. with an external solution containing (in mM): 140 NaCl, 4 KCl, 11 Glucose, 1.2 MgCl2, 1.8 CaCl2, 5.5 HEPES titrated to pH 7.4 with NaOH and adjusted at 320 mOsm with sucrose.
The spontaneous automaticity of isolated SAN cells was recorded under perforated-patch conditions by adding 30 μM β-escin49 to the intracellular solution containing (in mM): 130 KCl, 10 NaCl, 10 HEPES, 0.2 EGTA-KOH, 2 MgATP, 6.6 Phosphocreatine, 0.05 cAMP and 1 μM free Ca^2+ (pH 7.2). To record SK4 K+ current, a voltage ramp protocol was applied. SAN and hiPS-CMs were held at −40 mV and −20 mV, respectively to substantially inactivate voltage-gated Na^+ and Ca^2+ currents. Cells were stepped from −90 mV to +60 mV for 150 ms. Then, a cocktail (solution 1) containing (in mM) 0.3 cadmium, 0.025 ZD-7288 and 0.01 E-4031 was applied extracellularly to inhibit residual L-type and T-type voltage-gated Ca2+ currents, If and the IKr currents, respectively. […] For voltage-clamp recording of SAN cells, the intracellular solution was the same to that described above for recording spontaneous automaticity.
The spontaneous electric activity of the cell was recorded in the current clamp configuration of the patch clamp technique before (black trace) and during (violet trace) exposure to 2 μM clotrimazole.
FIG. 5E (Left) presents representative traces of spontaneous APs recorded in single SAN cell from WT mice.
A general note: In patch-clamp work, channel activity is measured electrically.

The subject of test [2] is SAN cells from CASQ2-D307H KI mice. Description: Spontaneous APs and DADs of isolated SAN cells from CASQ2 D307H KI mice. Type of test: cell-based, mouse. The note with it: 50 nM isoproterenol, after 1-2 minutes. As for the experimental part: as §1
The same solution, supplemented with 1 mg/ml albumin, 200 μM CaCl2, collagenase Type I (Worthington) or liberase TH (Roche), protease (Sigma) and elastase (Sigma) was used for enzymatic digestion as previously described [See, Mesirca, P., et al. Nat Commun 5, 4664 (2014)]. In this step, the tissue was gently resuspended with a polished Pasteur pipette in this solution for 9-13 minutes at 37° C. SAN samples were then washed three times in a modified “Kraftbrühe” solution, containing (in mM): 70 glutamic acid, 80 KOH, 20 KCl, 10 γ-Hydroxybutyric acid sodium salt, 10 KH2PO4, 10 HEPES-KOH, 10 taurine, 1 mg/ml albumin, 0.1 EGTA-KOH (pH 7.2). […] Cells were then gradually exposed to increasing concentrations of calcium, following a “Ca^2+ readaptation” protocol [Mesirca et al., 2014, supra]. […]
FIG. 5F (Left) presents representative traces of spontaneous APs recorded in single SAN cell from CASQ2 D307H KI mice. […]

Test [3] relates to normal hiPSC-CMs. Description: Spontaneous APs in hiPS-CMs derived from normal individuals. The class given is cell-based, human. The note with it: 3 μM isoproterenol. As for the experimental part: as §2
FIG. 4E (Left) presents representative traces of spontaneous APs recorded in hiPS-CM derived from a normal individual. […] FIG. 4E (Right) are bar graphs presenting data summary of pacing rate (normalized to Ctrl; one-way ANOVA **P=0.0071, n=14), DD slope (paired t-test, ***P<0.0001, n=14) and APD50 (one-way ANOVA *P=0.0243, n=18).

The subject of test [4] is CPVT2 hiPSC-CMs. Description: Spontaneous APs and DADs in hiPS-CMs derived from CPVT2 (CASQ2 D307H) patients. The class given is cell-based, human. The note with it: 3 μM isoproterenol. As for the experimental part:
as §2
FIG. 4F (Left) presents representative traces of spontaneous APs recorded in hiPS-CM derived from a CPVT2 (CASQ2 D307H) patients. From a regular pacing (black trace), DADs appeared when the cell was exposed to 3 μM isoproterenol (red trace, arrows). […] The suppression of cell 540 automaticity was reversible upon washout (blue trace). FIG. 4F (Right) present bar graphs showing data summary of pacing rate (n=17), on APD50 (n=17) and DADs (Normalized to Ctrl; one-way ANOVA***P=0.0001, n=15).

Test [5] deals with intact SAN tissue preparations from WT mice. Description: Spontaneous calcium transients ex vivo in intact SAN tissue from WT mice (Fluo-4 AM). The conditions noted are these: 100 nM isoproterenol. Type of test: cell-based, mouse. As for the experimental part: (§3) SAN tissue preparations were dissected ex vivo from WT and CASQ2-D307H KI mice as described in Torrente, A. G., et al. Proc Natl Acad Sci USA 112, 9769-9774 (2015). The dissected whole SAN tissue was pinned on a hand-made chamber and was incubated in a Tyrode solution containing 10 μM Fluo-4 AM (Thermo Fisher Scientific) and pluronic acid for 1 hour at 37° C. in the dark. The SAN tissue was washed in Tyrode at 37° C. in the dark for 10 minutes before experiments. Fluorescence of calcium transients was recorded using a photomultiplier (PTi D-104) at 35° C. and the analog signals were digitized using Digidata 1440 (Molecular Devices) and analyzed with pCLAMP 10.5 software.
(§4) To investigate the spontaneous calcium transients of the SAN, intact SAN tissue preparations dissected ex vivo from WT and CASQ2-D307H KI mice were exposed to Fluo-4 AM as previously described [Torrente, A. G., et al. Proc Natl Acad Sci USA 112, 9769-9774 (2015)].
FIG. 6A (Left) presents representative traces of spontaneous calcium transients recorded ex vivo in intact SAN tissue preparations from WT mice. […] Right: data summary of calcium transient rate (one-way-ANOVA***P=0.0003; n=12).

Test [6] relates to intact SAN from CASQ2 D307H KI mice. The experiment in a line: Spontaneous calcium transients ex vivo in intact SAN tissue from CASQ2-D307H KI mice (Fluo-4 AM). The class given is cell-based, mouse. The conditions noted are these: 100 nM isoproterenol. The procedure: as §3, §4
FIG. 6B presents representative traces of different types of calcium transient abnormalities recorded in intact SAN from CASQ2 D307H KI mice, termed as “local Ca^2+ release” (upper left), “double humped transients” (upper right), “large-stored released Ca^2+ waves” (lower left) and “calcium alternans” (lower right).
FIG. 6C presents representative trace of spontaneous calcium transients recorded from intact SAN of CASQ2 D307H KI. The baseline rate of calcium transients (control, black trace) yielded chaotic calcium transients (red trace) following incubation of the SAN with 100 nM isoproterenol.

For the compound `CC(C)NCC(O)c1ccc(O)c(O)c1` (centres unmarked) [Isoproterenol], the “pacing of SAN cells” value in test [1] was “significantly increased the pacing”. The DADs result in test [2] was “led to DADs”. For the same compound, in test [3], the APD50 entry is reported as “reduced their APD50” and the firing rate entry was “significantly increased their firing rate”. In test [4], the DADs entry is listed as “triggered DADs” and the chronotropic effect result is recorded as “did not produce positive chronotropic effect”. Besides, in test [5], the “rate of calcium transients” value is on record as “significantly increased”. Moreover, the “Ca2+ transient abnormalities” value in test [6] is given as “produced various Ca^2+ transient abnormalities”.
